Measurements: patent US12059422B2 (MEI Pharma, Inc., priority 2011, dated 2024)

Experiments:
PI3Kα = PI3Kα (Homo sapiens, UniProt P42336); assay: ELISA assay for PI3Kα: in-cell ELISA, phosphorylation of AKT (Thr308) in MDA-MB-453 cells; type: cell-based; conditions: cellular, pAKT (Thr308), IGF-1 stimulation, read-out: IC50 p110α
Procedure: PI3K alpha (PI3Kα) activity was determined by measuring the phosphorylation of AKT (Thr308) using an in-cell ELISA assay. MDA-MB-453 (breast carcinoma) cells were obtained from ATCC (ATCC #HTB-131). Growth medium was DMEM (CellGro #CV-10-013-CV) supplemented with 10% fetal bovine serum, 100 IU/mL penicillin, 100 μg/mL streptomycin, and 1×MEM non-essential amino acids. Phosphate buffered saline (PBS) contained 2.7 M NaCl, 54 mM KCl, 86 mM […] (dibasic, anhydrous), and 28 mM […] (monobasic, anhydrous) at pH 7.2. Stimulation mixture (10×) was 1000 ng/mL LONG® R^3 human IGF-1 (Sigma #I1271) diluted in serum-free DMEM medium (CellGro #CV-10-013-CV). Compounds for testing were dissolved and serially diluted in 100% DMSO (total of 10 concentrations), then diluted in serum-free DMEM to 2× final assay concentration. Fixative solution (2×) was 8% formaldehyde (Amresco #M134) diluted in PBS. Permeabilization solution was PBS supplemented with 0.1% Triton X-100. Blocking buffer was obtained from LiCor (LiCor #927-40000). Wash buffer was PBS supplemented with 0.1% Tween-20. Primary antibody solution was rabbit anti-pAKT^T308 monoclonal antibody (Cell Signaling #2965) and mouse anti-total S6 (Santa Cruz #74459) diluted 1:500 and 1:2000, respectively, in the blocking buffer. Secondary antibody solution was IRDye 800CW-conjugated goat anti-rabbit IgG (LiCor #926-32211) and IRDye 680LT-conjugated goat anti-mouse IgG (LiCor #926-68020) diluted 1:1000 and 1:2000, respectively, in the blocking buffer.
MDA-MB-453 cells were subcultured in growth medium and seeded into flat, clear bottom, 96-well plates (Corning #3904) at 40000 cells/well, then incubated overnight in a 5% CO2 incubator at 37° C. Growth medium in plates was replaced with 100 μL/well serum-free DMEM and incubated overnight at 37° C. in a 5% CO2 incubator. Fresh serum-free DMEM (50 μL/well) was added to plates. Compound treatment was performed by adding 50 μL/well of 2× compound mixture to plates and incubating for 1 hr at 37° C. and 5% CO2, after which 11 μL/well of 10× stimulation mixture was added and plates were incubated for 10 min at 37° C. and 5% CO2. Fixation was performed by adding 110 μL/well of 2× fixative solution to the plates and incubating for 20 min at room temperature. Permeabilization was performed by replacing fixation solution with 150 μL/well permeabilization solution and incubating for 10 min at room temperature. Permeabilization was repeated (for a total of 2 times). Permeabilization solution was replaced with 100 μL/well blocking buffer and plates were incubated for 1 hour at room temperature, after which 100 μL/well of primary antibody solution was added and plates were incubated overnight at 4° C. Plates were washed with wash buffer, after which 100 μL/well of secondary antibody solution was added to the plates and incubated in the dark for 1 hr at room temperature. Plates were washed with wash buffer, followed by a wash with PBS. After completely removing PBS, plates were scanned on the Licor Odyssey Imager. Images were quantified using Licor Odyssey application software. IC50 values were determined by curve fitting using a Collaborative Drug Discovery database (www.collaborativedrug.com).

PI3K gamma = molecular target: T1, PI3K gamma (Homo sapiens, UniProt P48736); assay: Luciferase-based luminescence assay (ADP Glo), PI3K gamma enzymatic activity; type: biochemical; conditions: inhibition of enzymatic activity, 25 μM ATP, read-out: IC50 p110γ
T1 construct: purchased Invitrogen Corp., Carlsbad, CA, USA
T1 sequence (P48736 whole entry, species assumed): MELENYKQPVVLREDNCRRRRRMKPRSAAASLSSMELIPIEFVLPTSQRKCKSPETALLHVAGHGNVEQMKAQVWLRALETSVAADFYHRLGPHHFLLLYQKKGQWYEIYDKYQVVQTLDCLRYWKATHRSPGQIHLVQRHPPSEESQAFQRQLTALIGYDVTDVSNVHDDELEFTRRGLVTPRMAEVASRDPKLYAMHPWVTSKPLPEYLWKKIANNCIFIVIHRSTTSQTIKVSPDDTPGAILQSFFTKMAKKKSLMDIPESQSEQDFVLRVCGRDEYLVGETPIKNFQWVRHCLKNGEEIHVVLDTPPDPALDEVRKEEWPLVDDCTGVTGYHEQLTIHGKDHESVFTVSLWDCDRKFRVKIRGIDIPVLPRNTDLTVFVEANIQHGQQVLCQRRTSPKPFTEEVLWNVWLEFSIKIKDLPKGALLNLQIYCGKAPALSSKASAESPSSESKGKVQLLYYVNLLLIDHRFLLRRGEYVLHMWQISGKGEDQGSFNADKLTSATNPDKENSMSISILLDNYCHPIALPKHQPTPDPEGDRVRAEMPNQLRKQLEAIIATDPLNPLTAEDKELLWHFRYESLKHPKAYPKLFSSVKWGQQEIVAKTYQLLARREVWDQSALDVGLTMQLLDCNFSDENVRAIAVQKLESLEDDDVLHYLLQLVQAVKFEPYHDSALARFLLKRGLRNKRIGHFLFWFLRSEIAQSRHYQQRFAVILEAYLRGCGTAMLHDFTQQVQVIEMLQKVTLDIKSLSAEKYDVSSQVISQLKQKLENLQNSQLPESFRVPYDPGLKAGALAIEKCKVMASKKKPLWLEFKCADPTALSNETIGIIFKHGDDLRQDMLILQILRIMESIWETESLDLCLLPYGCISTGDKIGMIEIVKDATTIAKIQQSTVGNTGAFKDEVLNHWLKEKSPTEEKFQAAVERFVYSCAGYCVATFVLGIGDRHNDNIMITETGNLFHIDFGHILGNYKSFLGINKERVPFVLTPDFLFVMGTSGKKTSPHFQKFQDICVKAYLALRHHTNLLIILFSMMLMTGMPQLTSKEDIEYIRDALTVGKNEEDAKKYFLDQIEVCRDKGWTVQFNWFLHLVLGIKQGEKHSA
Summary of the method: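 Final enzyme 4.8 nM PI3K beta or 7.6 nM PI3K gamma, with 50 μM PIP2 and 25 μM ATP, 1 h in HEPES pH 7.5 buffer with MgCl2, EGTA, NaCl, CHAPS and DTT. ADP formed measured by ADP-Glo luminescence; IC50 from 10-point curve fits.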

PI3Kα, sequence (P27986 2-724): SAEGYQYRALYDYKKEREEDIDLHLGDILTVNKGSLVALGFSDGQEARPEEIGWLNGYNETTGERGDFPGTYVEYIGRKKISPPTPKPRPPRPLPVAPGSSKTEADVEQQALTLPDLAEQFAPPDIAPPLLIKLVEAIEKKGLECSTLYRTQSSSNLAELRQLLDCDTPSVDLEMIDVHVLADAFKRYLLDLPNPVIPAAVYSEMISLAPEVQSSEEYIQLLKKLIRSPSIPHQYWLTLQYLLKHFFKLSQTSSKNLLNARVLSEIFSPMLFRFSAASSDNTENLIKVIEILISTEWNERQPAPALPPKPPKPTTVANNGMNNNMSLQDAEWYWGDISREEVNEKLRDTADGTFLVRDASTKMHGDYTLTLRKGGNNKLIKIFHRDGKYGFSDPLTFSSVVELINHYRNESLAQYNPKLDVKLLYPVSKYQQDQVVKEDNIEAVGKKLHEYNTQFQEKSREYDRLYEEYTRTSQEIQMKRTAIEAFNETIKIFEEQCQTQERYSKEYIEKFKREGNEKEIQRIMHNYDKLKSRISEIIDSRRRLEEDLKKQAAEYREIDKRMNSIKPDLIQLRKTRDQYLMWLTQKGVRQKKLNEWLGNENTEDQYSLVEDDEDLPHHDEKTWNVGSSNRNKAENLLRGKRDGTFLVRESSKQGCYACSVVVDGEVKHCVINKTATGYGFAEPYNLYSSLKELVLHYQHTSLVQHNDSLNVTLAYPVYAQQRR
PI3Kα, sequence (P42336 whole entry): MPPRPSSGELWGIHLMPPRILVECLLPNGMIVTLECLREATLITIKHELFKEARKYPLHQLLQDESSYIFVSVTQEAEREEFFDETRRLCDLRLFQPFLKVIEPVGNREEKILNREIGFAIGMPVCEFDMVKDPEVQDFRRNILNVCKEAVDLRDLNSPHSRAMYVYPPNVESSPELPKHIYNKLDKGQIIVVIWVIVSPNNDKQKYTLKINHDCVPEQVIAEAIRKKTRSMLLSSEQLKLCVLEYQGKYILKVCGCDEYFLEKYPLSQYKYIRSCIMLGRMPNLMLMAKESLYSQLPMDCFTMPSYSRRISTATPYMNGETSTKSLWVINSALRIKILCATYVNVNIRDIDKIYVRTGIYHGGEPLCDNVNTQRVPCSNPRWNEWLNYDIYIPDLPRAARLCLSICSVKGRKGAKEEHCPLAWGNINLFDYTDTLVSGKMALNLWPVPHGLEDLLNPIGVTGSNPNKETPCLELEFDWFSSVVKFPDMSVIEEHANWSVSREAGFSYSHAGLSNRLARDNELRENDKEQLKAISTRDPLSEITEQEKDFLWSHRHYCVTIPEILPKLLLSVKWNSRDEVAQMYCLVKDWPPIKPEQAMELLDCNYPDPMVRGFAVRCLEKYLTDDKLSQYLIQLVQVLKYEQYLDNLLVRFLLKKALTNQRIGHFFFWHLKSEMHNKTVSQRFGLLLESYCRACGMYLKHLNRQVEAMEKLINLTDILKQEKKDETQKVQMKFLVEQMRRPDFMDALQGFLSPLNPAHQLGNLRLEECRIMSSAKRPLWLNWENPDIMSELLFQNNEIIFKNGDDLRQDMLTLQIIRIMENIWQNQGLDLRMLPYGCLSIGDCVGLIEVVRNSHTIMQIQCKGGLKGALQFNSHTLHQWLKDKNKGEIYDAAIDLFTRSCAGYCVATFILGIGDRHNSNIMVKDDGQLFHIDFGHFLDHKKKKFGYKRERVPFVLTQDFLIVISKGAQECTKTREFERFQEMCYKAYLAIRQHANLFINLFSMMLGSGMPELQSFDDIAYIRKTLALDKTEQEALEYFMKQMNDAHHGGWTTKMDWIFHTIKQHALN

COc1ccc(-c2ccccc2CC(C)(C)Nc2nc(N3CCOCC3)nc(-n3c(C(F)F)nc4ccccc43)n2)cc1 [Compound A67, 4-(2-(difluoromethyl)-1H-benzo[d]imidazol-1-yl)-N-(1-(4′-methoxybiphenyl-2-yl)-2-methylpropan-2-yl)-6-morpholino-1,3,5-triazin-2-amine]
IC50 (PI3Kα): > 0.5 µM | IC50 (PI3K gamma): > 0.5 µM
